Laboratory results as given in article PMC5448077, “Development of an orally available inhibitor of CLK1 for skipping a mutated dystrophin exon in Duchenne muscular dystrophy” (Scientific Reports, 2017).

Experiments:
Haspin = Haspin (Homo sapiens, UniProt Q8TF76); experiment: recombinant kinase panel (IMAP or mobility shift assay), percent inhibition at […] TG693; assay type: biochemical; conditions: read-out: % inhibition at 1 μM
JAK2 = JAK2 (Homo sapiens, UniProt O60674); experiment: biochemical
Chain of JAK2 (O60674 whole entry): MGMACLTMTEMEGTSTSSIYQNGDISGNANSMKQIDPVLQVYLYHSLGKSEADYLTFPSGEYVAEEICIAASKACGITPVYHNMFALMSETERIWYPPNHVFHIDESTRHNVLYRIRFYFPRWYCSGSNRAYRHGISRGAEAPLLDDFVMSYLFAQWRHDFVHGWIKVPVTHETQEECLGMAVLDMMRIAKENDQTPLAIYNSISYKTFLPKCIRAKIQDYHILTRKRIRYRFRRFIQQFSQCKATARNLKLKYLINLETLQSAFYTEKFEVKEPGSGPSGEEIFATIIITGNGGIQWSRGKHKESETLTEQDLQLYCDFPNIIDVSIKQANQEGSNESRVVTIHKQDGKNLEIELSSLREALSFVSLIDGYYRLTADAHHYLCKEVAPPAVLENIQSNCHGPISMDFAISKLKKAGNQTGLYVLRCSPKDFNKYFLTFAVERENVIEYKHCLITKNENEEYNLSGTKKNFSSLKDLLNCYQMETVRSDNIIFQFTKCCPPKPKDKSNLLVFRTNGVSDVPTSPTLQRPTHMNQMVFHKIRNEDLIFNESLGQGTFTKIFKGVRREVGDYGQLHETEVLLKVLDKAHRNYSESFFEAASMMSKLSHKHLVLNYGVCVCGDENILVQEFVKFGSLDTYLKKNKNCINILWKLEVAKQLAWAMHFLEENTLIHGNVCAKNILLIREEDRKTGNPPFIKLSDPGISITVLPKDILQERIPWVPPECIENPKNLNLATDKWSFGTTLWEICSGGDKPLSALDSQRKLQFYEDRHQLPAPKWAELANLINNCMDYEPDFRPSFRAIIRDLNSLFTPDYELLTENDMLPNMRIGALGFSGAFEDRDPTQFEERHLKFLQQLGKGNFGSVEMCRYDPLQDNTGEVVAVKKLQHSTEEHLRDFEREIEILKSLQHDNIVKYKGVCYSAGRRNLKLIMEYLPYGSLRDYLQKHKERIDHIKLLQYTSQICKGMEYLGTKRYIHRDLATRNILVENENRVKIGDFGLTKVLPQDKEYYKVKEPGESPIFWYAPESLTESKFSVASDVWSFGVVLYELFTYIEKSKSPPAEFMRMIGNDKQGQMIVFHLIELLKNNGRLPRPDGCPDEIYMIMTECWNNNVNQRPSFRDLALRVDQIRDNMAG
In short: (§1)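 Human kinases phosphorylating kinase-specific synthetic peptides, assayed by mobility shift (MSA) or IMAP fluorescence polarization, in 20 mM HEPES pH 7.5, 0.01% Triton X-100, 2 mM DTT with substrate/ATP-metal. Reactions ran 1 or 5 h at room temperature; activity = P/(P + S) from product and substrate peak heights.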

CSK = CSK (Homo sapiens, UniProt P41240); experiment: biochemical
Chain of CSK (P41240 whole entry): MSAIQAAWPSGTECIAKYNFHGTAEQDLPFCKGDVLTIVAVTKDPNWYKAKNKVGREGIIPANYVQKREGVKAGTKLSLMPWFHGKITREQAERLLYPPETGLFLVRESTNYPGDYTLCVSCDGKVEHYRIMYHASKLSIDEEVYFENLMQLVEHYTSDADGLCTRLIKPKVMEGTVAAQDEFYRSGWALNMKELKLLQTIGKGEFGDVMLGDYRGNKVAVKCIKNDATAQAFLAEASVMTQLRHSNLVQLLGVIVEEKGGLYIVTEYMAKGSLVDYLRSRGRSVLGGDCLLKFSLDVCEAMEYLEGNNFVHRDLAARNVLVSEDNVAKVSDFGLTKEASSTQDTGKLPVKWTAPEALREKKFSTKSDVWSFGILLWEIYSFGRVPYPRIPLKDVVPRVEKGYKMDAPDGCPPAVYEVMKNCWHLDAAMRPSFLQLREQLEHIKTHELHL
In short: as §1

QIK = target: T1, QIK (Homo sapiens, UniProt Q9H0K1); experiment: biochemical
T1 construct: gene SIK2
T1 sequence (Q9H0K1 whole entry): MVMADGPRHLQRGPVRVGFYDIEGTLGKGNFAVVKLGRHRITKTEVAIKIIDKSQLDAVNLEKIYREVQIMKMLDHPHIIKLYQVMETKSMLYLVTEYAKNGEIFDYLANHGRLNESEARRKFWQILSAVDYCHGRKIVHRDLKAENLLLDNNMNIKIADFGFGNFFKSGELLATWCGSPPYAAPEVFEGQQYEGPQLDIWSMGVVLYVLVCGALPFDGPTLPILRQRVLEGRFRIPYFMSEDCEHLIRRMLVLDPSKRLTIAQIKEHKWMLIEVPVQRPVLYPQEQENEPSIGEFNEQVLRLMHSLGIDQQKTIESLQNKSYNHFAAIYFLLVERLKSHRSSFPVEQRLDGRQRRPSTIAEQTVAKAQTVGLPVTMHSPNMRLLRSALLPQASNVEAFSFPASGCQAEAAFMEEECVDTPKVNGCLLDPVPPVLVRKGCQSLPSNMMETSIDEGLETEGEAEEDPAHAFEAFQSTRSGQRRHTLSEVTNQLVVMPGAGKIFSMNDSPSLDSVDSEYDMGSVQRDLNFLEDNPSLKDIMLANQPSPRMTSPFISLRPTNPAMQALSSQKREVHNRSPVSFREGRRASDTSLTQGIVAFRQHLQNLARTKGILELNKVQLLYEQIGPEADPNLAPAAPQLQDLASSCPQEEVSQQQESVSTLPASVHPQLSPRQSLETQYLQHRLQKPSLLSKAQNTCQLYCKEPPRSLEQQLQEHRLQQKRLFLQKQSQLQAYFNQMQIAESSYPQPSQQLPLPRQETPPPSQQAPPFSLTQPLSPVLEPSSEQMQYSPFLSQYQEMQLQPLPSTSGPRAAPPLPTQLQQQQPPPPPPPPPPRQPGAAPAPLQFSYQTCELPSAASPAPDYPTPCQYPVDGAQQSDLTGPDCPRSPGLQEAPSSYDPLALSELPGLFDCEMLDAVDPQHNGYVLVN
In short: as §1

FES = FES (Homo sapiens, UniProt P07332); experiment: biochemical
Chain of FES (P07332 whole entry): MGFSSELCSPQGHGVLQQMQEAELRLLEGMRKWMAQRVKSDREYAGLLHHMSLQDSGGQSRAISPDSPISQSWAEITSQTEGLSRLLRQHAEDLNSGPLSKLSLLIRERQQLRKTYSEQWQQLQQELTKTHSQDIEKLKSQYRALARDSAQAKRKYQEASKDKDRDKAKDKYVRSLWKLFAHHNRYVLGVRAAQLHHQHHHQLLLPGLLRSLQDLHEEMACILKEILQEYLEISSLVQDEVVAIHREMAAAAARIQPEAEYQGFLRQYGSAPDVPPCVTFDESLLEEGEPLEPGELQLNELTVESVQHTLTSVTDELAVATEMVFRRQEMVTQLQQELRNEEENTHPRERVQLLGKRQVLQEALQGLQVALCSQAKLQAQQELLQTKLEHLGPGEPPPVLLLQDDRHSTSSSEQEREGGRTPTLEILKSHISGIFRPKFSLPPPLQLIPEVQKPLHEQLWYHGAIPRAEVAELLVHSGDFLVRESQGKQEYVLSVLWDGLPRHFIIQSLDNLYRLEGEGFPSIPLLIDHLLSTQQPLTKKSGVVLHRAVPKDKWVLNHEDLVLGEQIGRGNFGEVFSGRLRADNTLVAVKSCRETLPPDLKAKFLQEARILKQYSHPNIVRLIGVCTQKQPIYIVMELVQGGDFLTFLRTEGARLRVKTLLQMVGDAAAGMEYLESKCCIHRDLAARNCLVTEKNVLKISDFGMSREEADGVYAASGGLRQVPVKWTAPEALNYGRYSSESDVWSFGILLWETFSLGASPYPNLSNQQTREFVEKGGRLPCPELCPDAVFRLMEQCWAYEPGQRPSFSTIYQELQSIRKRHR
In short: as §1

EPHA7 = EPHA7 (Homo sapiens, UniProt Q15375); experiment: biochemical
Chain of EPHA7 (Q15375 whole entry): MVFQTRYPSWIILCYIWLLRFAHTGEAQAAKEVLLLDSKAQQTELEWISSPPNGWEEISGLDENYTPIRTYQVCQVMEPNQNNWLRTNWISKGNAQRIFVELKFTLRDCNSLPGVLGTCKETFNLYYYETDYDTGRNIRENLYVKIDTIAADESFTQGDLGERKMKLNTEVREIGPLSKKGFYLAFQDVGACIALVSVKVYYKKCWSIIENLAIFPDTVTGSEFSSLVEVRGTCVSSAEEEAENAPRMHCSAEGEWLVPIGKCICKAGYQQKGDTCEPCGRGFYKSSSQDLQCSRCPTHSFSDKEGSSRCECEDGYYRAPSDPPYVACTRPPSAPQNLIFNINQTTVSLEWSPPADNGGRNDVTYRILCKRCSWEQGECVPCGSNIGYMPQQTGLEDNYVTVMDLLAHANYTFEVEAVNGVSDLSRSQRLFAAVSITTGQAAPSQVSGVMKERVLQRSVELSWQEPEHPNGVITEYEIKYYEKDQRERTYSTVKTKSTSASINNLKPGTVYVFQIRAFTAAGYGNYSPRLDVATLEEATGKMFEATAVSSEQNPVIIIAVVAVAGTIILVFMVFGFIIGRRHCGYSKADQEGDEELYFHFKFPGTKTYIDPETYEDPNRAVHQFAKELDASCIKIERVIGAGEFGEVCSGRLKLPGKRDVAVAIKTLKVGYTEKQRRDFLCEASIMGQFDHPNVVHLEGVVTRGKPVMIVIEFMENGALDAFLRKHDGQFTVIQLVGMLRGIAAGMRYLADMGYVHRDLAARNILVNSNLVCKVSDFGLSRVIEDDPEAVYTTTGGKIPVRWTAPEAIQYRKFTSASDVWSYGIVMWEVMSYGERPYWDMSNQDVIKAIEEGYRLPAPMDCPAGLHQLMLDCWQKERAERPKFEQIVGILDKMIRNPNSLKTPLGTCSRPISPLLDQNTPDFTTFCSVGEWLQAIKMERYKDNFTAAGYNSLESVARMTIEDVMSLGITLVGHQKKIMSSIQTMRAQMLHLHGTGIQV
In short: as §1

PKCι = target: T2, PKCι (Homo sapiens, UniProt P41743); experiment: biochemical
T2 construct: gene PRKCI
T2 sequence (P41743 whole entry): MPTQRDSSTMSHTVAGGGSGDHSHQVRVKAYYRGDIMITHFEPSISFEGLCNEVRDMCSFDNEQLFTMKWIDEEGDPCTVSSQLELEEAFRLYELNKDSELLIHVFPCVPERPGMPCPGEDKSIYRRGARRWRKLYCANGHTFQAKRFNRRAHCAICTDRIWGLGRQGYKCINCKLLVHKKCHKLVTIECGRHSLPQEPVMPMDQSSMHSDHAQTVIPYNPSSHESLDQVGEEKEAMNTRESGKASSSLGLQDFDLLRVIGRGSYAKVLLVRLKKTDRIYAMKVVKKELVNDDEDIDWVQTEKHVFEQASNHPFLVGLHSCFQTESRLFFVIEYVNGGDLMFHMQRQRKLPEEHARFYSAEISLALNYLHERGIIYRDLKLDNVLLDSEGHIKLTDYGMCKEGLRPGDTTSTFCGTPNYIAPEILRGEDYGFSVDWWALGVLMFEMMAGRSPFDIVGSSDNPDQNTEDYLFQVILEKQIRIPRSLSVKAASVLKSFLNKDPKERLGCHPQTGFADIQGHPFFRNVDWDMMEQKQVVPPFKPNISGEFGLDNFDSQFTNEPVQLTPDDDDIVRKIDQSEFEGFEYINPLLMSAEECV
In short: as §1

BRK = target: T3, BRK (Homo sapiens, UniProt Q13882); experiment: biochemical
T3 construct: gene PTK6
In short: as §1

MINK = target: T4, MINK (Homo sapiens, UniProt Q8N4C8); experiment: biochemical
T4 construct: gene MINK1
In short: as §1

In the case of `c1cc(-c2ccc3[nH]ncc3c2)ccn1` [TG693, 5-(4-pyridinyl)-1H-indazole], the inhibition at 1 µM (Haspin) is reported as greater than 90%, the inhibition at 1 µM (JAK2) is reported as 7.9% and the inhibition at 1 µM (CSK) is reported as -1.2%. The inhibition at 1 µM (QIK) was 3.4%, the inhibition at 1 µM (FES) was 1.3% and the inhibition at 1 µM (EPHA7) was 5%. The inhibition at 1 µM (PKCι) was -6.8%, the inhibition at 1 µM (BRK) was 5.2% and the inhibition at 1 µM (MINK) was 23.2%.
